This is an account of results in patent US6613793B2 (Dabur Research Foundation, priority 2001, dated 2003).

Where two headings read alike, the source gives them in different places.

Data set [1] has as its system PTC (Colon) Tumor Xenografts. Briefly: Antitumor activity on PTC (Colon) tumor xenografts in nude mice. Format: in vivo, Balb/c athymic mice. To be noted: 10 mg orally once a day for 15 days; at the end of treatment. As to the method:
PTC (colon) tumor xenografts were initiated in Balb/c athymic mice by subcutaneous inoculation of a single cell suspension of PTC cells (15×10^6 cells/100 μL). […] The anti-tumor activity was monitored by measuring tumor volumes every fourth day and calculating volumes using the formula 0.4×W^2×L(W=smaller dia, L=larger dia,).

A further data set has as its system ECV304 cells. Briefly: Inhibition of tube-like-structure (TLS) formation on Matrigel. Set-up: key: significant (++); marginal (+); no effect (−). The note with it: 24 hours. Type of data set: cell-based. As to the method: Matrigel (70 ul) was placed into each well of a 96-well culture plate at 4° C. and was allowed to polymerize by incubation at 37° C. for 30 min. ECV304 (1×10^4) cells were seeded on the Matrigel in 200 ul DMEM supplemented with 10% FBS. The compounds to be tested were added to marked wells at selected non-cytotoxic concentrations and incubated at 37° C. for 24 hours. Five different phase-contrast microscopic fields (4X) were viewed and tube-like structure formation was evaluated qualatively by observing formation of lumen (sprouting) and extent of formation of branches and loops by sprouts (intususception). The inhibition of TLS caused by the addition of the test compound was recorded as significant (++), marginal (+), or no effect (−) as compared to the control TLS formation. A summary of the results is given below in the form of a table indicating the concentrations tested.

The subject of a further data set is Swiss albino mice. Format: in vivo. The note with it: oral; for safe dose: Swiss albino mice weighing 25 grams; for Mortality: observed 15 days.
The test system of another data set is 293 Kidney. Briefly: MTT cytotoxicity assay, 293. Format: cell-based. The note with it: Homo sapiens, 24 h, read-out: ED50 values of cytotoxicity. As to the method: (§1) Briefly, a three day MTT cytotoxicity assay was performed, which is based on the principle of uptake of MTT (3-(4,5-dimethylthiazol-2-yl)-2,5-diphenyl tetrazolium bromide), a tetrazolium salt, by the metabolically active cells where it is metabolized by active mitochondria into a blue colored formazan product that is read spectrophotometrically. MTT was dissolved in phosphate buffered saline with a pH of 7.4 to obtain an MTT concentration of 5 mg/ml; the resulting mixture was filtered through a 0.22 micron filter to sterilize and remove a small amount of insoluble residue. For each type of tumor cell, 20,000 to 50,000 cells were seeded in a 96-well culture plate and incubated with the combination in a CO2 incubator for 24 hours. […] After incubating for one hour, the plate was read spectrophotometrically at 540 nm and the percentage cytotoxicity calculated.
(In general: Tetrazolium dyes change colour on reduction, which living cells bring about.)

A further data set concerns PA 1 Ovary. Description: MTT cytotoxicity assay, PA 1. Type of data set: cell-based. To be noted: Homo sapiens, 24 h; PA 1 Ovarian; read-out: ED50 values of cytotoxicity. As to the method: as §1
The next data set has as its system MCF7 breast. Briefly: MTT cytotoxicity assay, MCF7. The note with it: Homo sapiens; for IC50: 24 h, MCF7 Breast, read-out: ED50 values of cytotoxicity. Format: cell-based. The procedure:
as §1

A further data set concerns INT 407 Intestine. Briefly: MTT cytotoxicity assay, INT 407. Format: cell-based. To be noted: Homo sapiens, 24 h, read-out: ED50 values of cytotoxicity. The procedure: as §1
The subject of a further data set is MOLT 4 Leukemia. Description: MTT cytotoxicity assay, MOLT 4. Format: cell-based. The note with it: Homo sapiens, 24 h, read-out: ED50 values of cytotoxicity. As to the method:
as §1

A further data set concerns KB Oral. Briefly: MTT cytotoxicity assay, KB. Format: cell-based. The note with it: Homo sapiens, 24 h, read-out: ED50 values of cytotoxicity. The procedure: as §1
The next data set concerns Hep2 Larynx. Briefly: MTT cytotoxicity assay, Hep2. Type of data set: cell-based. The note with it: Homo sapiens, HEp-2, 24 h, read-out: ED50 values of cytotoxicity. The procedure:
as §1

In the next data set the test system is Miapaca2 Pancreas. Description: MTT cytotoxicity assay, Miapaca2. Format: cell-based. To be noted: Homo sapiens, MIA PaCa-2, 24 h, read-out: ED50 values of cytotoxicity. The procedure:
as §1

The test system of a further data set is DU145 Prostate. Briefly: MTT cytotoxicity assay, DU145. Format: cell-based. To be noted: Homo sapiens, DU-145, 24 h, read-out: ED50 values of cytotoxicity. As to the method:
as §1

The subject of data set [2] is Glyceraldehyde 3 phosphate dehydrogenase. Briefly: Glyceraldehyde 3 phosphate dehydrogenase enzyme activity assay. Format: biochemical. The procedure: The activity of Glyceraldehyde 3 phosphate dehydrogenase enzyme was assayed by the methods detailed earlier. (Krebs E, 1955, Methods in Enzymology, 1 407 and Velick S, 1955, Methods in Enzymology, 1, 401). To monitor the reaction, the increase in absorbance at 340 nm due to the formation of NADH from NAD was recorded at 15 seconds intervals, the values remaining almost linear for 3 minutes. The assay mixture was in a total volume of 1.5 ml containing 1.3 ml of Sodium pyrophosphate buffer (0.015M; pH 8.5), containing sodium arsenate (0.03M), 0.05 ml of NAD (7.5 mM), 0.05 ml of DTT (0.1M) and 0.05 ml of DL- glyceraldehyde 3 phosphate (7 mM). The enzyme was diluted 1:100 immediately prior to use in Sodium pyrophosphate buffer (0.015M) (pH 8.5) containing sodium arsenate (0.03M). The reaction was initiated by the addition of 0.05 ml of glyceraldehyde 3 phosphate dehydrogenase enzyme. The test mixture contained methyl glyoxal or its conjugates in concentrations ranging from 0.5 mM to 5 mM. Methyl glyoxal and its conjugates were dissolved in 2.5% ethanol and water. The control experiments were carried out in the absence of the enzyme or the substrate under identical conditions. One unit of activity of glyceraldehyde 3 phosphate dehydrogenase is defined as the amount of enzyme required to convert lumol of NAD to NADH per minute under conditions defined as above.

In the next data set the test system is L132 Lung. Description: MTT cytotoxicity assay, L132. Format: cell-based. The note with it: Homo sapiens, 24 h, read-out: ED50 values of cytotoxicity. The procedure: as §1
In a further data set the test system is PTC Colon. Description: MTT cytotoxicity assay, PTC. Format: cell-based. To be noted: Homo sapiens, 24 h, read-out: ED50 values of cytotoxicity. The procedure:
as §1

The test system of another data set is U87MG Glioblastoma. Description: MTT cytotoxicity assay, U87MG. Format: cell-based. To be noted: Homo sapiens, U-87 MG, 24 h, read-out: ED50 values of cytotoxicity. As to the method: as §1
Setting [3] is: dosage level 2.5X (X=400 mg/kg B.Wt.).
The mark [4] stands for this setting: dosage level 3.5X (X=400 mg/kg B.Wt.).
Where [5] appears, read: dosage level 5X (X=400 mg/kg B.Wt.).
The mark [6] stands for this setting: dosage level 7.5X (X=400 mg/kg B.Wt.).
Setting [7] is: dosage level 10X (X=400 mg/kg B.Wt.).

As for `COC(=O)C1CCC(=O)N1C(OC(C)=O)C(C)=O` (stereo not shown) [MGC-4, N-(1-Acetoxy-2-ketopropyl)-methylpyroglutamate], the “average tumor volume as compared to average tumor volume of untreated control tumors” value in data set [1] turned out to be 41%. For the same compound, the “TLS Inhibition (Qualitative)” value with ECV304 cells (1.2 mM) is listed as “−”. In the data set with Swiss albino mice, this compound yielded a safe dose of 100 mg. The Mortality in the data set on Swiss albino mice (setting [3]), with Swiss albino mice (setting [4]), in the data set on Swiss albino mice (setting [5]), with Swiss albino mice (setting [6]) and in the data set with Swiss albino mice (setting [7]) was 0/10 in each case.
Consider `CCCCOC(=O)C1CCC(=O)N1C(O)C(C)=O` (stereo not shown) [MGC-2, N-(1-Hydroxy-2-ketopropyl)-butylpyroglutamate], for which, in the data set on ECV304 cells (1.2 mM), the “TLS Inhibition (Qualitative)” value was “+”. The IC50 in the data set on 293 Kidney was found to be 2000 ± 800 µM. The same compound gave a safe dose in the data set with Swiss albino mice of 75 mg. Besides, the Mortality in the data set with Swiss albino mice (setting [3]) is on record as 0/10; with Swiss albino mice (setting [4]) it was 0/10; with Swiss albino mice (setting [5]), 0/10; with Swiss albino mice (setting [6]) it was 0/10; in the data set on Swiss albino mice (setting [7]) it was 10/10.
In the case of `CC(=O)OC(C(C)=O)N1C(=O)CCC1C(=O)OCc1ccccc1` (stereo not drawn) [MGC-6, N-(l-acetoxy-2-ketopropyl)-benzylpyroglutamate], the IC50 in the data set on PA 1 Ovary is 1400 ± 200 µM; in the data set on MCF7 breast, greater than 5000 µM; in the data set on INT 407 Intestine, greater than 5000 µM; in the data set with MOLT 4 Leukemia, 1300 ± 300 µM; in the data set on KB Oral it was 2950 ± 300 µM; with 293 Kidney, 2900 ± 1000 µM. In addition, the IC50 came to 1200 ± 200 µM in the data set with Hep2 Larynx; 3900 ± 1000 µM with Miapaca2 Pancreas; 1900 ± 1000 µM in the data set on DU145 Prostate; 3800 ± 1000 µM in the data set with L132 Lung; 1600 ± 400 µM in the data set with PTC Colon; 4780 ± 600 µM with U87MG Glioblastoma. Further, the “TLS Inhibition (Qualitative)” value in the data set with ECV304 cells (1.2 mM) is recorded as “−”. For the same compound, the “Percent Inhibition Of Glyceraldehyde 3 Phosphate Dehydrogenase Activity” value is listed as 28.3 ± 2.5% in [2] (0.5 mM), 29.4 ± 3.0% in data set [2] (1 mM) and 30.1 ± 4.0% in data set [2] (5 mM). Moreover, the safe dose with Swiss albino mice turned out to be 75 mg. Also, the Mortality with Swiss albino mice (setting [3]) is on record as 0/10; in the data set on Swiss albino mice (setting [4]) it was 0/10; with Swiss albino mice (setting [5]), 0/10; with Swiss albino mice (setting [6]), 0/10; with Swiss albino mice (setting [7]), 10/10.
In the case of `COC(=O)C1CCC(=O)N1C(O)C(C)=O` (stereo not shown) [MGC-1, N-(1-Hydroxy-2-ketopropyl)-methylpyroglutamate], in the data set on MCF7 breast (MCF7, 1.0 mM, read-out: Percent cytotoxicity), the cytotoxicity at 1000 µM worked out at 0%. Further, the cytotoxicity at 5000 µM in the data set with MCF7 breast (MCF7, 5 mM, read-out: Percent cytotoxicity) was determined as 12.9 ± 2.1%.
For `CCOC(=O)C1CCC(=O)N1C(O)C(C)=O` (stereo not shown) [MGC-7, N-(1-Hydroxy-2-ketopropyl)-ethylpyroglutamate], the safe dose in the data set with Swiss albino mice was determined as 100 mg. For the same compound, the Mortality in the data set with Swiss albino mice (setting [3]), with Swiss albino mice (setting [4]), in the data set on Swiss albino mice (setting [5]), in the data set on Swiss albino mice (setting [6]) and in the data set on Swiss albino mice (setting [7]) was 0/10 in each case.
Consider `CC(=O)C=O` [Methylglyoxal, reference compound], for which, in data set [1], the “average tumor volume as compared to average tumor volume of untreated control tumors” value is 50%. Moreover, the “TLS Inhibition (Qualitative)” value in the data set on ECV304 cells (0.5 mM) is “+”; in the data set with ECV304 cells (0.8 mM) it was “+”; in the data set with ECV304 cells (1 mM), “++”. Further, the figures for the “Percent Inhibition Of Glyceraldehyde 3 Phosphate Dehydrogenase Activity” value in data set [2] (0.5 mM), in [2] (1 mM) and in [2] (5 mM) were 15 ± 4%, 18 ± 3.4% and 20 ± 4.0%, respectively. Besides, the “Glyceraldehyde 3 phosphate dehydrogenase enzyme activity inhibition (in words)” value in data set [2] (concentration ranging from 0.5 mM to 5 mM) is given as “inhibited significantly”.
As for `CCCCOC(=O)C1CCC(=O)N1C(OC(C)=O)C(C)=O` (stereo not shown) [MGC-5, N-(1-Acetoxy-2-ketopropyl)-butylpyroglutamate], the “TLS Inhibition (Qualitative)” value in the data set on ECV304 cells (1.2 mM) is “+”. Besides, the IC50 in the data set with KB Oral amounted to 2000 ± 700 µM; in the data set with 293 Kidney, 1900 ± 700 µM.
Take `CC(=O)C(O)N1C(=O)CCC1C(=O)OCc1ccccc1` (stereo not shown) [MGC-3, N-(1-Hydroxy-2-ketopropyl)-benzylpyroglutamate]: in the data set with PA 1 Ovary, the IC50 amounted to 1800 ± 600 µM. Also, the “TLS Inhibition (Qualitative)” value is “+” in the data set on ECV304 cells (2 mM) and “++” with ECV304 cells (2.5 mM).
Turning to `CCOC(=O)C1CCC(=O)N1C(OC(C)=O)C(C)=O` (stereo not shown) [MGC-8, N-(1-Acetoxy-2-ketopropyl)-ethylpyroglutarnate], the IC50 was found to be 1800 ± 700 µM with PA 1 Ovary; 2400 ± 1200 µM in the data set with MCF7 breast; 550 ± 300 µM with INT 407 Intestine; 2900 ± 500 µM in the data set with MOLT 4 Leukemia; 1950 ± 800 µM in the data set with KB Oral; 2100 ± 600 µM in the data set on Hep2 Larynx. The IC50 in the data set on DU145 Prostate was 1300 ± 300 µM; in the data set with L132 Lung it was greater than 5000 µM; in the data set on PTC Colon it was 2750 ± 400 µM; with U87MG Glioblastoma it was 1880 ± 700 µM. Besides, the “Percent Inhibition Of Glyceraldehyde 3 Phosphate Dehydrogenase Activity” value in [2] (0.5 mM) is 32.8 ± 1.2%; in data set [2] (1 mM), 40.1 ± 2.2%; in data set [2] (5 mM), 38.2 ± 1.9%. Further, the safe dose in the data set on Swiss albino mice worked out at 100 mg. For the same compound, the Mortality with Swiss albino mice (setting [3]), in the data set with Swiss albino mice (setting [4]), in the data set with Swiss albino mice (setting [5]), in the data set on Swiss albino mice (setting [6]) and with Swiss albino mice (setting [7]) was 0/10 throughout.
